The test system of the test is Pseudomonus aeruginosa NCTC-10490. The experiment in a line: In vitro activity, two-fold agar-plate dilution method, minimal inhibitory concentration (MIC). It is filed as cell-based. Particulars: read-out: MIC (minimal inhibitory concentration).
Setting [1] is: heart infusion agar (HI-agar), overnight culture in Trypticase-soy broth (10^8 viable cells per ml.), incubation at 37° C. for 20 hours.

In patent US4350692A, “3,7-Disubstituted-3-cephem-4-carboxylic acids” (Fujisawa Pharmaceutical Co., Ltd., priority 1976, dated 1982) one finds MIC data, which are given here for 16 compounds.

≈ marks a conversion by molar mass, not a printed value. Read-outs that look alike come from different tables or passages of the source.

For `Cn1nnnc1SCC1=C(C(=O)O)N2C(=O)C(NC(=O)[C@H](NC(=O)c3ccc(O)cc3O)c3ccccc3)C2SC1` (stereo partly drawn) [Example 25, 7-[D-N-(2,4-dihydroxybenzoyl)-2-phenylglycinamido]-3-(1-methyl-1H-tetrazol-5-ylthiomethyl)-3-cephem-4-carboxylic acid], where the note is “20 h”, the MIC was 1.56 µg/mL (≈ 2.61 µM). Consider `CC(=O)c1ccc(O)c(C(=O)N[C@@H](C(=O)NC2C(=O)N3C(C(=O)O)=C(CSc4nnnn4C)CSC23)c2ccccc2)c1` (stereo partly drawn) [Example 5, 7-[D-N-(2-hydroxy-5-acetylbenzoyl)-2-phenylglycinamido]-3-(1-methyl-1H-tetrazol-5-ylthiomethyl)-3-cephem-4-carboxylic acid], for which the MIC under setting [1] stood at 0.78 µg/mL (≈ 1.25 µM). `Cn1nnnc1SCC1=C(C(=O)O)N2C(=O)C(NC(=O)[C@H](NC(=O)c3cc([N+](=O)[O-])ccc3O)c3ccccc3)C2SC1` (stereo partly drawn) [Example 3, 7-[D-N-(2-hydroxy-5-nitrobenzoyl)-2-phenylglycinamido]-3-(1-methyl-1H-tetrazol-5-ylthiomethyl)-3-cephem-4-carboxylic acid]: under setting [1], the MIC turned out to be 0.78 µg/mL (≈ 1.24 µM). For the compound `Cn1nnnc1SCC1=C(C(=O)O)N2C(=O)C(NC(=O)[C@H](NC(=O)c3cc(Cl)cc(Cl)c3O)c3ccccc3)C2SC1` (stereo partly drawn) [Example 2, 7-[D-N-(2-hydroxy-3,5-dichlorobenzoyl)-2-phenylglycinamido]-3-(1-methyl-1H-tetrazol-5-ylthiomethyl)-3-cephem-4-carboxylic acid], the MIC under setting [1] turned out to be 0.78 µg/mL (≈ 1.2 µM). With `CC(=O)OCC1=C(C(=O)O)N2C(=O)[C@@H](NC(=O)[C@H](NC(=O)COc3ccc(Cl)cc3C(=O)c3ccccc3)c3ccccc3)[C@H]2SC1` [Example 67, 7-[D-N-{2-(2-benzoyl-4-chlorophenoxy)acetyl}-2-phenylglycinamido]cephalosporanic acid], the MIC (20 h) was 1.56 µg/mL (≈ 2.3 µM).

`Cn1nnnc1SCC1=C(C(=O)O)N2C(=O)C(NC(=O)[C@H](NC(=O)c3cc(C#N)c(Cl)cc3O)c3ccccc3)C2SC1` (stereo partly drawn) [Example 6, 7-[D-N-(2-hydroxy-4-chloro-5-cyanobenzoyl)-2-phenylglycinamido]-3-(1-methyl-1H-tetrazol-5-ylthiomethyl)-3-cephem-4-carboxylic acid]: the MIC (20 h) was 1.56 µg/mL (≈ 2.43 µM). Turning to `Cn1nnnc1SCC1=C(C(=O)O)N2C(=O)C(NC(=O)[C@H](NC(=O)c3cc(S(N)(=O)=O)ccc3O)c3ccccc3)C2SC1` (stereo partly drawn) [Example 4, 7-[D-N-(2-hydroxy-5-sulfamoylbenzoyl)-2-phenylglycinamido]-3-(1-methyl-1H-tetrazol-5-ylthiomethyl)-3-cephem-4-carboxylic acid], under setting [1], the MIC was found to be 0.78 µg/mL (≈ 1.18 µM). With `CN1CCN(S(=O)(=O)c2ccc(O)c(C(=O)N[C@@H](C(=O)NC3C(=O)N4C(C(=O)O)=C(CSc5nnnn5C)CSC34)c3ccccc3)c2)CC1` (stereo partly drawn) [Example 52, 7-[D-N-{2-hydroxy-5-(4-methyl-1-piperazinylsulfonyl)benzoyl}-2-phenylglycinamido]-3-(1-methyl-1H-tetrazol-5-ylthiomethyl)-3-cephem-4-carboxylic acid], where the note is “20 h”, the MIC stood at 1.56 µg/mL (≈ 2.1 µM).

Take `Cc1nnc(SCC2=C(C(=O)O)N3C(=O)C(NC(=O)[C@H](NC(=O)[C@H](O)c4ccccc4)c4ccccc4)C3SC2)s1` (stereo partly drawn) [Example 56, 7-[D-N-(D-mandeloyl)-2-phenylglycinamido]-3-(5-methyl-1,3,4-thiadiazol-2-ylthiomethyl)-3-cephem-4-carboxylic acid]: the MIC under setting [1] came out at 12.5 µg/mL (≈ 20.4 µM).

Regarding `Cn1nnnc1SCC1=C(C(=O)O)N2C(=O)C(NC(=O)[C@H](NC(=O)c3cc(C(N)=O)c(Cl)cc3O)c3ccccc3)C2SC1` (stereo partly drawn) [Example 7, 7-[D-N-(2-hydroxy-4-chloro-5-carbamoylbenzoyl)-2-phenylglycinamido]-3-(1-methyl-1H-tetrazol-5-ylthiomethyl)-3-cephem-4-carboxylic acid], the MIC under setting [1] amounted to 0.78 µg/mL (≈ 1.18 µM).

For `Cn1nnnc1SCC1=C(C(=O)O)N2C(=O)C(NC(=O)[C@H](NC(=O)COc3cc(Cl)cc(Cl)c3O)c3ccccc3)C2SC1` (stereo partly drawn) [Example 63, 7-[D-N-{2-(2-hydroxy-3,5-dichlorophenoxy)acetyl}-2-phenylglycinamido]-3-(1-methyl-1H-tetrazol-5-ylthiomethyl)-3-cephem-4-carboxylic acid], the MIC under setting [1] amounted to 6.25 µg/mL (≈ 9.18 µM). `Cn1nnnc1SCC1=C(C(=O)O)N2C(=O)C(NC(=O)[C@H](NC(=O)c3cc(S(N)(=O)=O)c(Cl)cc3O)c3ccccc3)C2SC1` (stereo partly drawn) [Example 8, 7-[D-N-(2-hydroxy-4-chloro-5-sulfamoylbenzoyl)-2-phenylglycinamido]-3-(1-methyl-1H-tetrazol-5-ylthiomethyl)-3-cephem-4-carboxylic acid]: the MIC under setting [1] came to 0.78 µg/mL (≈ 1.12 µM). As for `Cn1nnnc1SCC1=C(C(=O)O)N2C(=O)C(NC(=O)[C@H](NC(=O)c3cc([N+](=O)[O-])cc([N+](=O)[O-])c3O)c3ccccc3)C2SC1` (stereo partly drawn) [Example 9, 7-[D-N-(2-hydroxy-3,5-dinitrobenzoyl)-2-phenylglycinamido]-3-(1-methyl-1H-tetrazol-5-ylthiomethyl)-3-cephem-4-carboxylic acid], under “20 h”, the MIC worked out at 1.56 µg/mL (≈ 2.32 µM). On to `CCOC(=O)CS(=O)(=O)NCc1nnc(SCC2=C(C(=O)O)N3C(=O)C(NC(=O)[C@H](NC(=O)c4cc(Cl)cc(Cl)c4O)c4ccccc4)C3SC2)s1` (stereo partly drawn) [Example 53, 7-[D-N-(2-hydroxy-3,5-dichlorobenzoyl)-2-phenylglycinamido]-3-(5-ethoxycarbonylmesylaminomethyl-1,3,4-thiadiazol-2-ylthiomethyl)-3-cephem-4-carboxylic acid], for which the MIC (20 h) worked out at 1.56 µg/mL (≈ 1.88 µM). For `CC(=O)OCC1=C(C(=O)O)N2C(=O)[C@@H](NC(=O)[C@H](NC(=O)COc3ccc(Cl)cc3C(=O)c3ccc(NC(=O)CSCC(=O)O)cc3)c3ccccc3)[C@H]2SC1` [Example 69, 7-[D-N-[2-{2-(4-carboxymethylthioacetamidobenzoyl)-4-chlorophenoxy}acetyl]-2-phenylglycinamido]cephalosporanic acid], the MIC under setting [1] came out at 6.25 µg/mL (≈ 7.57 µM). Take `Cn1nnnc1SCC1=C(C(=O)O)N2C(=O)[C@@H](NC(=O)[C@H](NC(=O)c3cc(Cl)ccc3O)c3ccccc3)[C@H]2SC1` [Example 1, 7-[D-N-(2-hydroxy-5-chlorobenzoyl)-2-phenylglycinamido]-3-(1-methyl-1H-tetrazol-5-ylthiomehyl)-3-cephem-4-carboxylic acid]: where the note is “20 h”, the MIC is 1.56 µg/mL (≈ 2.53 µM).
